# Measured values reported in ChEMBL document CHEMBL1201862, “PubChem BioAssay data set” (2004).
# Active and inactive are the calls of the source.
# What was measured:
# [1] = cells; format: functional, cell-based
# [2] = biological target: T1, Trace amine-associated receptor 1 (Homo sapiens, UniProt Q96RJ0); test: Fluorescence-based cell-based high throughput dose response assay to identify agonists of the human trace amine associated receptor 1 (TAAR1).; format: functional
# T1 sequence (Q96RJ0 whole entry): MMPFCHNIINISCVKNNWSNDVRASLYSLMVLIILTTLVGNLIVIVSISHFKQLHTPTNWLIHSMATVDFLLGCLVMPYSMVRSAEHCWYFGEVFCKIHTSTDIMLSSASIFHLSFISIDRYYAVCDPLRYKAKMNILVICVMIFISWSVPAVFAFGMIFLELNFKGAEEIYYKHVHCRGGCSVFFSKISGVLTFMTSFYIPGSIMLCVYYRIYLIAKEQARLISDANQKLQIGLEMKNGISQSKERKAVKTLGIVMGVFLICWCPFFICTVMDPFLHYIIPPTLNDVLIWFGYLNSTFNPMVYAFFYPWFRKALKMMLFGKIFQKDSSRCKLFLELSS
# [3] = biological target: T1, Trace amine-associated receptor 1; test: Counterscreen for agonists of the human trace amine associated receptor 1 (hTAAR1): Fluorescence-based cell-based high throughput dose response assay to identify hTAAR1 agonist that also desensitize TAAR1 receptor response.; format: functional
# [4] = cells; format: functional, cell-based; remark: listed apart in the source
# [5] = biological target: Ras and Rab interactor 1/Tyrosine-protein kinase ABL1 (Homo sapiens, UniProt P00519+Q13671); format: functional;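 note: biochemical TR-FRET dose-response test measuring inhibition of binding between Rin1 and Abl proteins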
# [6] = Counterscreen for […] of the human trace amine associated receptor 1 (TAAR1): Fluorescence-based cell-based high throughput dose response assay to identify nonselective Ga16 agonists.; format: functional
# [7] = biological target: T1, Trace amine-associated receptor 1; test: Fluorescence-based cell-based high throughput dose response assay to identify antagonists of the human trace amine associated receptor 1 (TAAR1).; format: functional
# [8] = Counterscreen for antagonists of the human trace amine associated receptor 1 (hTAAR1): Fluorescence-based cell-based high throughput dose response assay to identify nonselective Ga16 antagonists.; format: functional
# [9] = biological target: T1, Trace amine-associated receptor 1; test: Counterscreen for antagonists of the human trace amine associated receptor 1 (hTAAR1): Fluorescence-based cell-based high throughput dose response assay to identify TAAR1 Agonists.; format: functional
# [10] = blockers of bursicon-stimulated LGR2 cAMP reporter – cell-based, HEK293, CRE-luciferase reporter, cherry pick, set 2, dose response (AID 743343); format: functional;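 note: transfected cells were stimulated with diluted bursicon conditioned medium after compound addition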
# [11] = blockade of melanocortin 4 receptor signaling – cell-based, plate reader, cherry pick, counter-screen for LGR2 antagonist project, dose response (AID 743444); format: functional;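 note: transfected HEK 293 cells stimulated with alpha-MSH peptide; potency of inhibitors of the alpha-MSH evoked signal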
# [12] = viability loss in HEK293 cells – cell-based, plate reader, cherry-picked samples, cytotoxicity control, dose response (AID 743446); format: functional
# [13] = biological target: T2, Adenosylmethionine-8-amino-7-oxononanoate aminotransferase (Mycobacterium tuberculosis, UniProt P9WQ81); test: Mycobacterium tuberculosis BioA enzyme inhibitor Measured in Biochemical System Using Plate Reader - 2163-02_Inhibitor_Dose_CherryPick_Activity.; format: functional, Mycobacterium tuberculosis UT205
# T2 sequence (P9WQ81 whole entry): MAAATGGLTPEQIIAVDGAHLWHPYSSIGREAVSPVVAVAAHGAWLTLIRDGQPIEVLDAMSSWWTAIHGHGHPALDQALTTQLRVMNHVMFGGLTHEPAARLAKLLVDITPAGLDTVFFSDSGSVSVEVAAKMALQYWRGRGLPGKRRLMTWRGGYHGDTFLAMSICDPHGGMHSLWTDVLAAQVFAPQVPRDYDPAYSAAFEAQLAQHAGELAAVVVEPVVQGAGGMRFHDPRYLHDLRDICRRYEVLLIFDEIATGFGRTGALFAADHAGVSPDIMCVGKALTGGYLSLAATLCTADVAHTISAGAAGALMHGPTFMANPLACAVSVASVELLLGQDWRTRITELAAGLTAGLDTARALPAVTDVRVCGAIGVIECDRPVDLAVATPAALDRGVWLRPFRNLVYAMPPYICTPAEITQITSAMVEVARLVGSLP
# [14] = OVCAR8 cell viability loss – plate reader, dry powder samples, PAX8 project, dose response (AID 743197); format: functional, cell-based; conditions: OVCAR-8
# [15] = biological target: Paired box protein Pax-8 (Homo sapiens, UniProt Q06710); test: PAX8 transcriptional activity inhibition in RMG-I – RMG-I cells, luciferase, cherry-pick, dose response (AID 687027); format: functional, cell-based;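 note: luciferase reporter driven by Pax8 target thyroperoxidase promoter measured by SteadyGlo luminescence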
# [16] = T. cruzi growth inhibition in host cells, dose response, cell-based, plate reader, dry powder, set 2 (AID 652275); format: functional
# Sequence of Paired box protein Pax-8 (Q06710 whole entry): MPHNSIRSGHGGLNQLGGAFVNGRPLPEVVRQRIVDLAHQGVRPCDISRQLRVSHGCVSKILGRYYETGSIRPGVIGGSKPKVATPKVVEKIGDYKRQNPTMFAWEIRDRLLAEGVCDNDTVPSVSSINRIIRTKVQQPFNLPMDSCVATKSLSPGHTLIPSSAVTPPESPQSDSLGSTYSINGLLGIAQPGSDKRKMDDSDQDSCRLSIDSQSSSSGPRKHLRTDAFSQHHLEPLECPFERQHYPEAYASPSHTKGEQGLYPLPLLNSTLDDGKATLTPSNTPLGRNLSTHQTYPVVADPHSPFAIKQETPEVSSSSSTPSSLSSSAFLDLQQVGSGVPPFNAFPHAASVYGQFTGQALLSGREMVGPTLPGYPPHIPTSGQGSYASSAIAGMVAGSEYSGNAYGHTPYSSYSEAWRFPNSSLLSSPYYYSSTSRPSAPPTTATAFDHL
# Sequence of Ras and Rab interactor 1/Tyrosine-protein kinase ABL1 (P00519 whole entry): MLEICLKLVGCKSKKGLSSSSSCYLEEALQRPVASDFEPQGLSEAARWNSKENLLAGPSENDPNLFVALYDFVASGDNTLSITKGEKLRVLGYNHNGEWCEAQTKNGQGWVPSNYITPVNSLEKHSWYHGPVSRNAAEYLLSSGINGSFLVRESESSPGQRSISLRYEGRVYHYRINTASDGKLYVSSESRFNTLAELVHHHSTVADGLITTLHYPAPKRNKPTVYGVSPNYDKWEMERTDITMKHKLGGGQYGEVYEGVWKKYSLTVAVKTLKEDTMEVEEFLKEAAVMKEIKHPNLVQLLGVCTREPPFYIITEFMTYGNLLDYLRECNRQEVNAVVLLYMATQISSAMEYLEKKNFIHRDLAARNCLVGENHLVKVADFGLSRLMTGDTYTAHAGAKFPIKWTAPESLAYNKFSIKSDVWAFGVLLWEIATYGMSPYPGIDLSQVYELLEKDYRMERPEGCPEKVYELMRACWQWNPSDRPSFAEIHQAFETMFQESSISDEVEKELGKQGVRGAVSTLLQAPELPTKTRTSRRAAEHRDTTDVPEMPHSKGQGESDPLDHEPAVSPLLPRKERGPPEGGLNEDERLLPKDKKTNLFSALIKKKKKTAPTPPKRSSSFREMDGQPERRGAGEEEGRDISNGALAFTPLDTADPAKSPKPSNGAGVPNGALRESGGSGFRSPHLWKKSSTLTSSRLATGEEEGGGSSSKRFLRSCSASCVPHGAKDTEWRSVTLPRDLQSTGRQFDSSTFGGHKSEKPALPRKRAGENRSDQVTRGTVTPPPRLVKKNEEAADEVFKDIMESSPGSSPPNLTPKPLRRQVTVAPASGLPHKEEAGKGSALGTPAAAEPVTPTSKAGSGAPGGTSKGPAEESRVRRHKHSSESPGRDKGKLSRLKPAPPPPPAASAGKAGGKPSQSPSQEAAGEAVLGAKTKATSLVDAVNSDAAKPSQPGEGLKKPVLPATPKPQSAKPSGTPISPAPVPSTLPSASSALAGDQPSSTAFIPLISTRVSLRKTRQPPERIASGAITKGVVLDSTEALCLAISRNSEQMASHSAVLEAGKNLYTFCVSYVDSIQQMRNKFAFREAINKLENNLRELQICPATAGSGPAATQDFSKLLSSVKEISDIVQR
# Sequence of Ras and Rab interactor 1/Tyrosine-protein kinase ABL1 (Q13671 whole entry): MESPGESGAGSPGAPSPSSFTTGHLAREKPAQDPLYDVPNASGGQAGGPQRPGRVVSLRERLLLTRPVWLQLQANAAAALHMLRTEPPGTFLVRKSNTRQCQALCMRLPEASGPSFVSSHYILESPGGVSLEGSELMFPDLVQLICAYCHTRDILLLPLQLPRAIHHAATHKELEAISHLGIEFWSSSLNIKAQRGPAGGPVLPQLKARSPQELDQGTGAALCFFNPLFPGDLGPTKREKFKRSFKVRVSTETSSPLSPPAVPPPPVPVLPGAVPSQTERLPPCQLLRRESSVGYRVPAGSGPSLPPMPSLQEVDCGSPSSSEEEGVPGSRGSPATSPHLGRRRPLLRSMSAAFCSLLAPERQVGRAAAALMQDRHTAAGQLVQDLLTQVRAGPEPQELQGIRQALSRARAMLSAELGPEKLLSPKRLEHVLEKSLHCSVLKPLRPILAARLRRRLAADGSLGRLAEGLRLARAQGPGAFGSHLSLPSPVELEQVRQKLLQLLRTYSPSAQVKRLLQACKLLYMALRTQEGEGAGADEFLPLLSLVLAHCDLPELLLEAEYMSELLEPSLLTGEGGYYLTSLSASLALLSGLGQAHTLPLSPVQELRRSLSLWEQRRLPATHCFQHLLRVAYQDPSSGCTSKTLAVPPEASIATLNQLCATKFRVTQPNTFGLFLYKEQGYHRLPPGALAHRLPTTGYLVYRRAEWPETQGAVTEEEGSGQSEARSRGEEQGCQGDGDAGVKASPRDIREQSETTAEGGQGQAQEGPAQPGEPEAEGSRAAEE
smiles,measurement,setting,value
O=C(O)[C@H]1CCCC[C@H]1C(=O)NCCc1ccccc1,IC50,[1],> 29.9 µM (inactive)
same,EC50,[2],0.37 µM (active)
same,IC50,[3],7.35 µM (active)
same,EC50,[4],> 29.9 µM (inactive)
Cc1cc2nc3n(c2cc1C)CC1CC(C(=O)NCCc2cccs2)N(C)C31 (stereo unspecified),IC50,[1],> 29.9 µM (inactive)
same,EC50,[2],2 µM (active)
same,IC50,[3],8.5 µM (active)
same,EC50,[4],> 29.9 µM (inactive)
COc1ccc(-n2nnnc2C(C2CC2)N2CCC(n3c(O)nc4ccccc43)CC2)cc1 (stereo unspecified),IC50,[5],19.8 µM (inactive)
same,EC50,[6],> 29.9 µM (inactive)
same,IC50,[7],> 9.96 µM (active)
same,IC50,[8],> 29.9 µM (inactive)
same,EC50,[9],22.4 µM (inactive)
FC(F)(F)c1cccc(CC2CN(Cc3ccccc3)Cc3ccccc3N2c2cc(Cl)cc(Cl)c2)c1 (stereo unspecified),AC50,[10],22.2 µM (active)
same,AC50,[11],12.5 µM (active)
same,AC50,[12],> 52 µM (inactive)
COc1ccc(-c2ccc3c(c2)[C@H]2[C@H](CCN2C(=O)Cc2cccnc2)[C@H](CO)N3C)cc1,AC50,[13],1.57 µM (active)
same,AC50,[14],> 70 µM (inactive)
C[C@@H]1CCCCO[C@H](CN(C)C(=O)Nc2ccc(C(F)(F)F)cc2)[C@@H](C)CN([C@@H](C)CO)C(=O)c2cc(NS(=O)(=O)c3ccc(F)cc3)ccc2O1,AC50,[15],4.88 µM (active)
same,AC50,[14],> 70 µM (inactive)
C[C@H]1CN([C@@H](C)CO)C(=O)c2cccc(NC(=O)c3ccncc3)c2O[C@@H]1CN(C)Cc1cccc(Cl)c1,AC50,[16],0.0155 µM (active)
